In the NIST ThermoML archive (doi:10.1021/je060271a):
Numbers after ± are expanded uncertainties.

Conditions: 303.15 K, Liquid, Vibrating tube method

CCCCC(=O)OCC(COC(=O)CCCC)(COC(=O)CCCC)COC(=O)CCCC [pentaerythritol tetrapentanoate]
Conditions | mass density [kg/m3]
4917.5 kPa | 1014 ± 1.2
4937.6 kPa | 1014 ± 1.2
4960.8 kPa | 1014 ± 1.2
4980.3 kPa | 1014.2 ± 1.2
5000.8 kPa | 1014.1 ± 1.2
5025.3 kPa | 1014.2 ± 1.2
5046.6 kPa | 1014.1 ± 1.2
5067.7 kPa | 1014.1 ± 1.2
5090.5 kPa | 1014.1 ± 1.2
5111.3 kPa | 1014.1 ± 1.2
5136.1 kPa | 1014.1 ± 1.2
5153.9 kPa | 1014.2 ± 1.2
5159.6 kPa | 1014.2 ± 1.2
5160.1 kPa | 1014.2 ± 1.2
5161.3 kPa | 1014.2 ± 1.2
5164.9 kPa | 1014.2 ± 1.2
5167.4 kPa | 1014.3 ± 1.2
5169.1 kPa | 1014.2 ± 1.2
5170.1 kPa | 1014.2 ± 1.2
5173.9 kPa | 1014.1 ± 1.2
5178.6 kPa | 1014.2 ± 1.2
5179.3 kPa | 1014.2 ± 1.2
5180.5 kPa | 1014.2 ± 1.2
5181.4 kPa | 1014.2 ± 1.2
5181.7 kPa | 1014.2 ± 1.2
5182.6 kPa | 1014.3 ± 1.2
5182.9 kPa | 1014.3 ± 1.2
5183.8 kPa | 1014.2 ± 1.2
5184.3 kPa | 1014.2 ± 1.2
5184.7 kPa | 1014.2 ± 1.2
5185.4 kPa | 1014.2 ± 1.2
5185.5 kPa | 1014.3 ± 1.2
5189.7 kPa | 1014.1 ± 1.2
5199.6 kPa | 1014.3 ± 1.2
5209.2 kPa | 1014.3 ± 1.2
5217.7 kPa | 1014.2 ± 1.2
5223.9 kPa | 1014.2 ± 1.2
5239.9 kPa | 1014.2 ± 1.2
5266.9 kPa | 1014.4 ± 1.2
5289.9 kPa | 1014.2 ± 1.2
5312.7 kPa | 1014.4 ± 1.2
5340.7 kPa | 1014.1 ± 1.2
5364.2 kPa | 1014.3 ± 1.2
5388.3 kPa | 1014.4 ± 1.2
5417.9 kPa | 1014.3 ± 1.2
5443 kPa | 1014.4 ± 1.2
5468.4 kPa | 1014.4 ± 1.2
5493.1 kPa | 1014.4 ± 1.2
5518.4 kPa | 1014.5 ± 1.2
5548.5 kPa | 1014.4 ± 1.2
5573.5 kPa | 1014.4 ± 1.2
5599.8 kPa | 1014.5 ± 1.2
5631 kPa | 1014.4 ± 1.2
5657.1 kPa | 1014.5 ± 1.2
5684.4 kPa | 1014.6 ± 1.2
5712.8 kPa | 1014.5 ± 1.2
5747 kPa | 1014.4 ± 1.2
5774.2 kPa | 1014.6 ± 1.2
5801.5 kPa | 1014.6 ± 1.2
5829.1 kPa | 1014.6 ± 1.2
5862.5 kPa | 1014.7 ± 1.2
5891.4 kPa | 1014.7 ± 1.2
5920.4 kPa | 1014.8 ± 1.2
5955.2 kPa | 1014.6 ± 1.2
5985.3 kPa | 1014.7 ± 1.2
6015.3 kPa | 1014.7 ± 1.2
6045.8 kPa | 1014.8 ± 1.2
6082.1 kPa | 1014.7 ± 1.2
6112.3 kPa | 1014.8 ± 1.2
6149.7 kPa | 1014.8 ± 1.2
6181.5 kPa | 1014.8 ± 1.2
6213.5 kPa | 1014.9 ± 1.2
6246.6 kPa | 1014.8 ± 1.2
6279.6 kPa | 1014.9 ± 1.2
6319.4 kPa | 1014.9 ± 1.2
6353.6 kPa | 1015 ± 1.2
6388.4 kPa | 1014.9 ± 1.2
6430.4 kPa | 1015 ± 1.2
6466 kPa | 1014.9 ± 1.2
6496.2 kPa | 1015 ± 1.2
6524.4 kPa | 1015.1 ± 1.2
6558.6 kPa | 1015.1 ± 1.2
6587.6 kPa | 1015.1 ± 1.2
6617.8 kPa | 1015.1 ± 1.2
6648.1 kPa | 1015.2 ± 1.2
6678.6 kPa | 1015.1 ± 1.2
6714 kPa | 1015.2 ± 1.2
6743.7 kPa | 1015.3 ± 1.2
6774.5 kPa | 1015.2 ± 1.2
6811.1 kPa | 1015.3 ± 1.2
6842.3 kPa | 1015.2 ± 1.2
6873.4 kPa | 1015.3 ± 1.2
6911.1 kPa | 1015.3 ± 1.2
6943.4 kPa | 1015.4 ± 1.2
6975.7 kPa | 1015.2 ± 1.2
7008.7 kPa | 1015.3 ± 1.2
7048.1 kPa | 1015.3 ± 1.2
7083.3 kPa | 1015.5 ± 1.2
7119.9 kPa | 1015.4 ± 1.2
7154.6 kPa | 1015.4 ± 1.2
7190.2 kPa | 1015.4 ± 1.2
7232.8 kPa | 1015.5 ± 1.2
7266.1 kPa | 1015.6 ± 1.2
7296.5 kPa | 1015.5 ± 1.2
7326.2 kPa | 1015.5 ± 1.2
7361.8 kPa | 1015.6 ± 1.2
7392.7 kPa | 1015.6 ± 1.2
7425.7 kPa | 1015.6 ± 1.2
7461.8 kPa | 1015.7 ± 1.2
7491.3 kPa | 1015.7 ± 1.2
7529.6 kPa | 1015.6 ± 1.2
7561.2 kPa | 1015.7 ± 1.2
7593.6 kPa | 1015.8 ± 1.2
7626.1 kPa | 1015.9 ± 1.2
7659.1 kPa | 1015.6 ± 1.2
7692.2 kPa | 1015.8 ± 1.2
7732.6 kPa | 1015.9 ± 1.2
7766.1 kPa | 1015.8 ± 1.2
7800.6 kPa | 1015.9 ± 1.2
7835 kPa | 1015.7 ± 1.2
7876.5 kPa | 1015.9 ± 1.2
7911.6 kPa | 1016 ± 1.2
7947.1 kPa | 1016 ± 1.2
7990.4 kPa | 1016 ± 1.2
8026.7 kPa | 1015.9 ± 1.2
8062.9 kPa | 1016.1 ± 1.2
8107.6 kPa | 1016.1 ± 1.2
8145.4 kPa | 1016.1 ± 1.2
8184.2 kPa | 1016.2 ± 1.2
8222.5 kPa | 1016.2 ± 1.2
8262.2 kPa | 1016.2 ± 1.2
8293.2 kPa | 1016.2 ± 1.2
8323.8 kPa | 1016.3 ± 1.2
8354.7 kPa | 1016.2 ± 1.2
8392.8 kPa | 1016.3 ± 1.2
8424.5 kPa | 1016.1 ± 1.2
8457.1 kPa | 1016.3 ± 1.2
8489 kPa | 1016.4 ± 1.2
8528 kPa | 1016.3 ± 1.2
8560.4 kPa | 1016.4 ± 1.2
8593.7 kPa | 1016.5 ± 1.2
8633.4 kPa | 1016.4 ± 1.2
8666.8 kPa | 1016.3 ± 1.2
8707.5 kPa | 1016.4 ± 1.2
8742.2 kPa | 1016.4 ± 1.2
8776.3 kPa | 1016.6 ± 1.2
8818.4 kPa | 1016.6 ± 1.2
8854.8 kPa | 1016.4 ± 1.2
8890.8 kPa | 1016.5 ± 1.2
8920.7 kPa | 1016.5 ± 1.2
8952.9 kPa | 1016.6 ± 1.2
8979.8 kPa | 1016.7 ± 1.2
9013.1 kPa | 1016.5 ± 1.2
9039.8 kPa | 1016.6 ± 1.2
9066.8 kPa | 1016.6 ± 1.2
9100.5 kPa | 1016.7 ± 1.2
9128.4 kPa | 1016.7 ± 1.2
9157.4 kPa | 1016.6 ± 1.2
9191.7 kPa | 1016.8 ± 1.2
9218.7 kPa | 1016.8 ± 1.2
